Experiments:
Test in all cases: MTT cell proliferation assay, PU-H71 titration
Assay type in all cases: cell-based
MM144 = settings: Homo sapiens, MM144 myeloma cell line, 72 hours, without thrombin
Experimental: (§1) Cell growth inhibition of an anticancer agent (PU-H71) (6) was tested in a panel of myeloma cell lines. HMCLs were treated with a titration of the anti-cancer reagent PU-H71 (0 to 4,000 nM) in vitro for 72 hours. The MTT assay was utilized to detect proliferation of each cell line. The half maximal inhibitory concentration (IC50) of PU-H71 was calculated using OriginPro 7.5 statistic software.

XG1 = settings: Homo sapiens, XG1 myeloma cell line, 72 hours, without thrombin
Experimental: as §1

U266 = settings: Homo sapiens, U-266, U266 myeloma cell line, 72 hours, without thrombin
Experimental: as §1

L363 = settings: Homo sapiens, L-363, L363 myeloma cell line, 72 hours, without thrombin
Experimental: as §1

ARK = settings: Homo sapiens, ARK myeloma cell line, 72 hours, without thrombin
Experimental: as §1

KMS28BM = settings: Homo sapiens, KMS-28BM, KMS28BM myeloma cell line, 72 hours, without thrombin
Experimental: as §1

OPM2 = settings: Homo sapiens, OPM-2, OPM2 myeloma cell line, 72 hours, without thrombin
Experimental: as §1

JJN3 = settings: Homo sapiens, JJN-3, JJN3 myeloma cell line, 72 hours, without thrombin
Experimental: as §1

INA6 = settings: Homo sapiens, INA-6, INA6 myeloma cell line, 72 hours, without thrombin
Experimental: as §1

RPMI8226 = settings: Homo sapiens, RPMI-8226, RPMI8226 myeloma cell line, 72 hours, without thrombin
Experimental: as §1

KMS28PE = settings: Homo sapiens, KMS-28PE, KMS28PE myeloma cell line, 72 hours, without thrombin
Experimental: as §1

OCI-MY5 = settings: Homo sapiens, OCI-MY5 myeloma cell line, 72 hours, without thrombin
Experimental: as §1

H929 = settings: Homo sapiens, NCI-H929, H929 myeloma cell line, 72 hours, without thrombin
Experimental: as §1

`CC(C)NCCCn1c(Sc2cc3c(cc2I)OCO3)nc2c(N)ncnc21` [PU-H71] showed an IC50 (MM144) of 0.306 µM, an IC50 (XG1) of 0.238 µM and an IC50 (U266) of 0.198 µM. It also gave an IC50 (L363) of 0.232 µM, an IC50 (ARK) of 0.339 µM and an IC50 (KMS28BM) of 0.164 µM. The IC50 (OPM2) was 0.415 µM, the IC50 (JJN3) was 0.8 µM and the IC50 (INA6) was 0.141 µM. It also gave an IC50 (RPMI8226) of 0.485 µM, an IC50 (KMS28PE) of 0.344 µM and an IC50 (OCI-MY5) of 0.164 µM. For the same molecule, the IC50 (H929) was 0.21 µM.

Source: patent US20130209446A1, “Copy Number Variant-Dependent Genes As Diagnostic Tools, Predictive Biomarkers And Therapeutic Targets” (Board of Trustees of the University of Arkansas, priority 2010, published 2013)
